Assay results published in patent US20070099915A1, “INHIBITORS OF THE HIV INTEGRASE ENZYME” (PFIZER INC., priority 2005, published 2007).

How the values were obtained:
[1] = target: T1, Full-length wild type HIV-1 integrase (SF1) (Human immunodeficiency virus type 1 group M subtype B, UniProt P04585); test: Integrase strand-transfer scintillation proximity assay; format: biochemical; details: strand-transfer SPA, 246 nM integrase, 50 nM host DNA, 37° C., 50 min; read-out: IC50
T1 construct: made in house; host or cells: E. coli BL21 (DE3)

[2] = system: HIV-1 RF virus in CEM-SS cells; test: HIV-1 cell protection assay (XTT dye reduction); format: cell-based; details: Human immunodeficiency virus 1, 144 h; RF strain of HIV-1, CEM-SS cells, XTT read-out after six days; read-out: EC50
Method in brief: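 Infected CEM-SS cultures incubated six days, then XTT with phenazine methosulfate added for 4 h; viability read as formazan absorbance at 450 nm. Formazan expressed as percent of uninfected, compound-free cells; CC50 from uninfected treated cells, therapeutic index as CC50/EC50.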

HIV-1 = HIV-1 infected patients; S. Little et al., CROI 2005, Abstract 161; cited from earlier work

With `O=C1c2ncc3c(c(CCN4CCOCC4)cn3Cc3ccc(F)cc3)c2CCN1O` [Example 111, 3-(4-fluorobenzyl)-7-hydroxy-1-(2-morpholinoethyl)-8,9-dihydro-3H-pyrrolo[2,3-c][1,7]naphthyridin-6(7H)-one] the IC50 [1] was 12 nM and the EC50 [2] was 4 nM.
`O=C1c2ncc3c(c(CCNC4CCOCC4)cn3Cc3ccc(F)cc3)c2CCN1O` [Example 112, 3-(4-flourobenzyl)-7-hydroxy-1-(2-(tetrahydro-2H-pyran-4-ylamino)ethyl)-8,9-dihydro-3H-pyrrolo[2,3-c][1,7]naphthyridin-6(7H)-one] showed an IC50 [1] of 28 nM and an EC50 [2] of 63 nM.
With `CN(CCc1cn(Cc2ccc(F)cc2)c2cnc3c(c12)CCN(O)C3=O)CC(F)(F)F` [Example 113, 3-(4-fluorobenzyl)-7-hydroxy-1-{2-[methyl(2,2,2-trifluoroethyl)amino]ethyl}-3,7,8,9-tetrahydro-6H-pyrrolo[2,3-c]-1,7-naphthyridin-6-one] the IC50 [1] was 15 nM and the EC50 [2] was 2 nM.
`CN(CCc1cn(Cc2ccc(F)cc2)c2cnc3c(c12)CCN(O)C3=O)CC1CC1` [Example 114] showed an IC50 [1] of 19 nM and an EC50 [2] of 10 nM.
Work on `O=C1c2ncc3c(c(CCNCC(F)(F)F)cn3Cc3ccc(F)cc3)c2CCN1O` [Example 115, 3-(4-fluorobenzyl)-7-hydroxy-1-{2-[(2,2,2-trifluoroethyl)amino]ethyl}-3,7,8,9-tetrahydro-6H-pyrrolo[2,3-c]-1,7-naphthyridin-6-one] yielded an IC50 [1] of 14 nM and an EC50 [2] of 2 nM.
`O=C1c2ncc3c(c(CCNCCC(F)(F)F)cn3Cc3ccc(F)cc3)c2CCN1O` [Example 117, 3-(4-fluorobenzyl)-7-hydroxy-1-{2-[(3,3,3-trifluoropropyl)amino]ethyl}-3,7,8,9-tetrahydro-6H-pyrrolo[2,3-c]-1,7-naphthyridin-6-one] gave an IC50 [1] of 17 nM and an EC50 [2] of 6 nM.
For `COCCN(C)CCc1cn(Cc2ccc(F)cc2)c2cnc3c(c12)CCN(O)C3=O` [Example 118, 3-(4-fluorobenzyl)-7-hydroxy-1-{2-[(2-methoxyethyl)(methyl)amino]ethyl}-3,7,8,9-tetrahydro-6H-pyrrolo[2,3-c]-1,7-naphthyridin-6-one], the IC50 [1] was 20 nM and the EC50 [2] was 13 nM.
Compound `CN1CCN(CCc2cn(Cc3ccc(F)cc3)c3cnc4c(c23)CCN(O)C4=O)CC1=O` [Example 119, 3-(4-fluorobenzyl)-7-hydroxy-1-[2-(4-methyl-3-oxopiperazin-1-yl)ethyl]-3,7,8,9-tetrahydro-6H-pyrrolo[2,3-c]-1,7-naphthyridin-6-one] has an IC50 [1] of 12 nM and an EC50 [2] of 70 nM.
With `O=C1c2ncc3c(c(CCCO)cn3Cc3ccc(F)cc3)c2CCN1O` [Example 120, 3-(4-fluorobenzyl)-7-hydroxy-1-(3-hydroxypropyl)-3,7,8,9-tetrahydro-6H-pyrrolo[2,3-c]-1,7-naphthyridin-6-one] the IC50 [1] was 13 nM and the EC50 [2] was 9 nM.
With `COC(C)(C)CCc1cn(Cc2ccc(F)cc2)c2cnc3c(c12)CCN(O)C3=O` [Example 121, 3-(4-fluorobenzyl)-7-hydroxy-1-(3-methoxy-3-methylbutyl)-3,7,8,9-tetrahydro-6H-pyrrolo[2,3-c]-1,7-naphthyridin-6-one] the IC50 [1] was 14 nM and the EC50 [2] was 0.4 nM.
Compound `CN(CCCc1cn(Cc2ccc(F)cc2)c2cnc3c(c12)CCN(O)C3=O)Cc1ccccn1` [Example 122, 3-(4-fluorobenzyl)-7-hydroxy-1-{3-[methyl(pyridin-2-ylmethyl)amino]propyl}-3,7,8,9-tetrahydro-6H-pyrrolo[2,3-c]-1,7-naphthyridin-6-one] has an IC50 [1] of 26 nM and an EC50 [2] of 5 nM.
`CC(C)CN(C)Cc1cn(Cc2ccc(F)cc2)c2cnc3c(c12)CCN(O)C3=O` [Example 123, 3-(4-fluorobenzyl)-7-hydroxy-1-{[isobutyl(methyl)amino]methyl}-3,7,8,9-tetrahydro-6H-pyrrolo[2,3-c]-1,7-naphthyridin-6-one] gave an IC50 [1] of 44 nM and an EC50 [2] of 1.6 nM.
With `CN1CCN(CCCc2cn(Cc3ccc(F)cc3)c3cnc4c(c23)CCN(O)C4=O)CC1=O` [Example 127, 3-(4-fluorobenzyl)-7-hydroxy-1-[3-(4-methyl-3-oxopiperazin-1-yl)propyl]-3,7,8,9-tetrahydro-6H-pyrrolo[2,3-c]-1,7-naphthyridin-6-one] the IC50 [1] was 14 nM and the EC50 [2] was 40 nM.
Compound `O=C1c2ncc3c(c(CCCOCCN4CCOCC4)cn3Cc3ccc(F)cc3)c2CCN1O` [Example 128, 3-(4-fluorobenzyl)-7-hydroxy-1-[3-(2-morpholin-4-ylethoxy)propyl]-3,7,8,9-tetrahydro-6H-pyrrolo[2,3-c]-1,7-naphthyridin-6-one] has an IC50 [1] of 21 nM and an EC50 [2] of 5 nM.
In the case of `O=C(NCc1ccc(F)cc1)c1nc(N2CCCCS2(=O)=O)c2cccnc2c1O` [Example L-000870810], the “clinical efficacy in the treatment of HIV-infected patients” value (HIV-1) is given as “showed clinical efficacy”.
